How the values were obtained:
human recombinant FAAH = human recombinant FAAH (Homo sapiens (Human), UniProt O00519); assay: In vitro inhibition of FAAH activity (fluorescent inhibitor screening kit, AMC arachidonoyl amide); assay type: biochemical; conditions: human recombinant FAAH; read-out: Inhibition on FAAH activity (IC50)
Outline: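 Fluorogenic kit assay: AMC arachidonoyl amide is cleaved by human recombinant FAAH, read at 340-360/450-465 nm. Percent inhibition versus non-treated control; IC50 values derived from multiple compound concentrations where tested.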

human recombinant MAGL = human recombinant MAGL (Homo sapiens (Human), UniProt Q99685); assay: In vitro inhibition of MAGL activity (inhibitor screening kit, 4-nitrophenylacetate); assay type: biochemical; conditions: human recombinant MAGL
Outline: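 Colorimetric kit assay: recombinant human MAGL hydrolyses 4-nitrophenylacetate to 4-nitrophenol, read by absorbance at 405-412 nm. Inhibition given as percentage of signal in treated versus untreated MAGL control.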

human recombinant MAGL, sequence (Q99685 whole entry): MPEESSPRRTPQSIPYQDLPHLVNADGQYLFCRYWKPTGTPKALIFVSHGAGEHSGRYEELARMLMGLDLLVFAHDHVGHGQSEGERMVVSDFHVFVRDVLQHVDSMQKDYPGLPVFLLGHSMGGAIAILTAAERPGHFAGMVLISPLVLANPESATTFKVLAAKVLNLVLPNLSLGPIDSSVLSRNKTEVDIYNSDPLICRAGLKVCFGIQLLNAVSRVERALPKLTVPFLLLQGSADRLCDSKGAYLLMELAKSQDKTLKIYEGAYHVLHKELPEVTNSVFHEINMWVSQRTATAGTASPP
human recombinant FAAH, sequence (O00519 whole entry): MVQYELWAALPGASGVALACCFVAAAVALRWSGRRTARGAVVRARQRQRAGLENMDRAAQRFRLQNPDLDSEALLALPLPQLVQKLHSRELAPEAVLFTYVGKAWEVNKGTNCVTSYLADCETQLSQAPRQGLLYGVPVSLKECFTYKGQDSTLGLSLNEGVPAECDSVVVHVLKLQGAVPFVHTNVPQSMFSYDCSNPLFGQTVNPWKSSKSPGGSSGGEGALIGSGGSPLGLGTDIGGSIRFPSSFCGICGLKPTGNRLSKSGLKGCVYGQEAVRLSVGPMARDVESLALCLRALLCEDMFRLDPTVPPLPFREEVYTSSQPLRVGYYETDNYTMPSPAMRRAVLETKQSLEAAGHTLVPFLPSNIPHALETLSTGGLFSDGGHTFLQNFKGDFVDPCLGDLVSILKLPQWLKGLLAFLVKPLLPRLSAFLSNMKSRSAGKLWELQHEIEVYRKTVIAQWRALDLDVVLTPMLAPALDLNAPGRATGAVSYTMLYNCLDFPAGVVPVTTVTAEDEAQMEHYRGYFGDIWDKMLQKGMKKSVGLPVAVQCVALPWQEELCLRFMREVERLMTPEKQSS

Compound	IC50 (human recombinant FAAH) [µM]	IC50 (human recombinant MAGL) [µM]
O=Cc1cncc(-c2cccc(OC(=O)NCC3CCCCC3)c2)c1 [Example 17, 3-(5-formylpyridin-3-yl)phenyl (cyclohexylmethyl)carbamate]	0.01 to 0.1	> 10
CCCCCCCCCCCCCCNC(=O)Oc1cccc(-c2cncc(C(=O)OCC)c2)c1 [Example 4, ethyl 5-(3-((tetradecylcarbamoyl)oxy)phenyl)nicotinate]	0.001 to 0.01	1 to 10
CC1CCC(NC(=O)Oc2ccc(F)c(-c3cncc(-c4nnco4)c3)c2)CC1 (centres unmarked) [Example 193, 3-(5-(1,3,4-oxadiazol-2-yl)pyridin-3-yl)-4-fluorophenyl (4-methylcyclohexyl)carbamate]	0.01 to 0.1	> 10
Cc1cc(OC(=O)NCc2ccccc2)cc(-c2cncc(-c3ncco3)c2)c1 [Example 100, 3-methyl-5-(5-(oxazol-2-yl)pyridin-3-yl)phenyl benzylcarbamate]	> 1	> 10
COc1ccc(OC(=O)NCc2ccccc2)cc1-c1cncc(-c2ccno2)c1 [Example 111, 3-(5-(isoxazol-5-yl)pyridin-3-yl)-4-methoxyphenyl benzylcarbamate]	0.1 to 1	> 10
Cc1cc(OC(=O)NC2CCCCCC2)cc(-c2cncc(-c3ncco3)c2)c1 [Example 103, 3-methyl-5-(5-(oxazol-2-yl)pyridin-3-yl)phenyl cycloheptylcarbamate]	0.1 to 1	~10
CCCCCCCCNC(=O)Oc1ccc(OC)c(-c2cncc(-c3ncco3)c2)c1 [Example 78, 4-methoxy-3-(5-(oxazol-2-yl)pyridin-3-yl)phenyl octylcarbamate]	0.01 to 0.1	1 to 10
O=C(NC1CCCC1)Oc1cccc(-c2cncc(-c3cccs3)c2)c1 [Example 62, 3-(5-(thiophen-2-yl)pyridin-3-yl)phenyl cyclopentylcarbamate]	0.01 to 0.1	~10
CCCCCCCCNC(=O)Oc1cccc(-c2cncc(-c3cccs3)c2)c1 [Example 59, 3-(5-(thiophen-2-yl)pyridin-3-yl)phenyl octylcarbamate]	0.01 to 0.1	> 10
COc1ccc(OC(=O)NCC2CCCCC2)cc1-c1cncc(-c2nnn[nH]2)c1 [Example 251, 3-(5-(1H-tetrazol-5-yl)pyridin-3-yl)-4-methoxyphenyl (cyclohexylmethyl)carbamate]	> 1	> 10
CCCCCCCCNC(=O)Oc1cccc(-c2cncc(-c3nncs3)c2)c1 [Example 207, 3-(5-(1,3,4-thiadiazol-2-yl)pyridin-3-yl)phenyl octylcarbamate]	0.001 to 0.01	~10
N#Cc1cncc(-c2cccc(OC(=O)NC3CCCCCC3)c2)c1 [Example 29, 3-(5-cyanopyridin-3-yl)phenyl cycloheptylcarbamate]	~0.1	> 10
COc1ccc(OC(=O)NC2CCCCCC2)cc1-c1cncc(-c2ncn[nH]2)c1 [Example 237, 3-(5-(1H-1,2,4-triazol-5-yl)pyridin-3-yl)-4-methoxyphenyl cycloheptylcarbamate]	0.1 to 1	> 10
O=C(NCc1ccccc1)Oc1cccc(-c2cncc(-c3nnco3)n2)c1 [Example 265, 3-(6-(1,3,4-oxadiazol-2-yl)pyrazin-2-yl)phenyl benzylcarbamate]	0.1 to 1	> 10
O=C(NC1CCCCCC1)Oc1cccc(-c2cncc(-c3ccno3)c2)c1 [Example 108, 3-(5-(isoxazol-5-yl)pyridin-3-yl)phenyl cycloheptylcarbamate]	0.01 to 0.1	> 1
Cc1cc(OC(=O)NC2CCCCC2)cc(-c2cncc(-c3ncco3)c2)c1 [Example 101, 3-methyl-5-(5-(oxazol-2-yl)pyridin-3-yl)phenyl cyclohexylcarbamate]	> 1	> 10
COc1ccc(OC(=O)NCc2ccccc2)cc1-c1cncc(-c2ccc[nH]2)c1 [Example 43, 3-(5-(1H-pyrrol-2-yl)pyridin-3-yl)-4-methoxyphenyl benzylcarbamate]	> 1	> 10
O=C(NC12CC3CC(CC(C3)C1)C2)Oc1cccc(-c2cncc(-c3ncco3)c2)c1 [Example 77, 3-(5-(oxazol-2-yl)pyridin-3-yl)phenyl ((1s,3s)-adamantan-1-yl)carbamate]	> 1	> 10
O=C(Oc1cccc(-c2cncc(-c3nnco3)c2)c1)N1CC2(COC2)C1 [Example 152, 3-(5-(1,3,4-oxadiazol-2-yl)pyridin-3-yl)phenyl 2-oxa-6-azaspiro[3.3]heptane-6-carboxylate]	> 1	> 10
O=C(NCc1ccccc1)Oc1cc(F)cc(-c2cncc(-c3nnco3)c2)c1 [Example 196, 3-(5-(1,3,4-oxadiazol-2-yl)pyridin-3-yl)-5-fluorophenyl benzylcarbamate]	> 1	~10

Compound	IC50 (human recombinant FAAH) [µM]	IC50 (human recombinant MAGL) [µM]
CCOC(=O)c1cncc(-c2cccc(OC(=O)NC3CCCC3)c2)c1 [Example 5, ethyl 5-(3-((cyclopentylcarbamoyl)oxy)phenyl)nicotinate]	0.01 to 0.1	> 10
COc1ccc(OC(=O)NC2CCCCCC2)cc1-c1cncc(-c2ccco2)c1 [Example 58, 3-(5-(furan-2-yl)pyridin-3-yl)-4-methoxyphenyl cycloheptylcarbamate]	0.1 to 1	> 10
O=C(NC1CCCCCC1)Oc1cccc(-c2cncc(C(F)(F)F)c2)c1 [Example 34, 3-(5-(trifluoromethyl)pyridin-3-yl)phenyl cycloheptylcarbamate]	0.1 to 1	> 10
O=C(NCc1ccccc1)Oc1cccc(-c2cncc(-c3nnco3)c2)c1 [Example 135, 3-(5-(1,3,4-oxadiazol-2-yl)pyridin-3-yl)phenyl benzylcarbamate]	> 0.1	> 50
O=C(NC1CCCCC1)Oc1cccc(-c2cncc(-c3ccno3)c2)c1 [Example 107, 3-(5-(isoxazol-5-yl)pyridin-3-yl)phenyl cyclohexylcarbamate]	0.01 to 0.1	> 10
CCCCCCCCNC(=O)Oc1cccc(-c2cncc(C(=O)NN)c2)c1 [Example 25, 3-(5-(hydrazinecarbonyl)pyridin-3-yl)phenyl octylcarbamate]	> 1	> 10
O=C(NC1CCCCC1)Oc1ccc(OC(F)(F)F)c(-c2cncc(-c3ncco3)c2)c1 [Example 89, 3-(5-(oxazol-2-yl)pyridin-3-yl)-4-(trifluoromethoxy)phenyl cyclohexylcarbamate]	0.1 to 1	> 10
O=C(Oc1cccc(-c2cncc(-c3nnco3)c2)c1)N1CCOCC1 [Example 151, 3-(5-(1,3,4-oxadiazol-2-yl)pyridin-3-yl)phenyl morpholine-4-carboxylate]	1 to 10	> 10
CSc1ccc(OC(=O)NCc2ccccc2)cc1-c1cncc(-c2nnco2)c1 [Example 188, 3-(5-(1,3,4-oxadiazol-2-yl)pyridin-3-yl)-4-(methylthio)phenyl benzylcarbamate]	> 1	> 10
COc1cc(OC(=O)NCC2CCCCC2)cc(-c2cncc(-c3nnco3)c2)c1 [Example 175, 3-(5-(1,3,4-oxadiazol-2-yl)pyridin-3-yl)-5-methoxyphenyl (cyclohexylmethyl)carbamate]	~0.1	> 10
CN(C)c1ccc(OC(=O)NC2CCCCC2)cc1-c1cncc(-c2nnco2)c1 [Example 184, 3-(5-(1,3,4-oxadiazol-2-yl)pyridin-3-yl)-4-(dimethylamino)phenyl cyclohexylcarbamate]	> 1	> 10
O=C(NC1CCCCC1)Oc1cccc(-c2cncc(-c3nnn[nH]3)c2)c1 [Example 242, 3-(5-(1H-tetrazol-5-yl)pyridin-3-yl)phenyl cyclohexylcarbamate]	> 1	> 10
O=C(NC1CCCCCC1)Oc1cccc(-c2cncc(-c3ccco3)c2)c1 [Example 52, 3-(5-(furan-2-yl)pyridin-3-yl)phenyl cycloheptylcarbamate]	0.01 to 0.1	~10
CSc1ccc(OC(=O)NC2CCCCC2)cc1-c1cncc(-c2nnco2)c1 [Example 190, 3-(5-(1,3,4-oxadiazol-2-yl)pyridin-3-yl)-4-(methylthio)phenyl cyclohexylcarbamate]	0.1 to 1	> 10
O=C(NC1CCCCCC1)Oc1cccc(-c2cc(-c3nnco3)ccn2)c1 [Example 262, 3-(4-(1,3,4-oxadiazol-2-yl)pyridin-2-yl)phenyl cycloheptylcarbamate]	0.01 to 0.1	> 1
O=C(NC1CCCC1)Oc1cccc(-c2cncc(-c3nnco3)n2)c1 [Example 266, 3-(6-(1,3,4-oxadiazol-2-yl)pyrazin-2-yl)phenyl cyclopentylcarbamate]	0.01 to 0.1	1 to 10
COc1ccc(OC(=O)NC2CCCCC2)cc1-c1cncc(-c2nnco2)c1 [Example 170, 3-(5-(1,3,4-oxadiazol-2-yl)pyridin-3-yl)-4-methoxyphenyl cyclohexylcarbamate]	0.1 to 1	~10
O=C(NC1CCCCCC1)Oc1cccc(-c2cncc(-c3nnco3)c2)c1 [Example 137, 3-(5-(1,3,4-oxadiazol-2-yl)pyridin-3-yl)phenyl cycloheptylcarbamate]	0.01 to 0.02	> 10
CCCCCCCNC(=O)Oc1cccc(-c2cncc(C(=O)NO)c2)c1 [Example 22, 3-(5-(hydroxycarbamoyl)pyridin-3-yl)phenyl heptylcarbamate]	0.01 to 1	> 1
COc1ccc(OC(=O)NC2CCCC2)cc1-c1cncc(-c2nnco2)c1 [Example 169, 3-(5-(1,3,4-oxadiazol-2-yl)pyridin-3-yl)-4-methoxyphenyl cyclopentylcarbamate]	0.01 to 0.1	> 10

From patent publication US20250129027A1 (APOGEE PHARMACEUTICALS, INC., priority 2023, published 2025)
